In article PMC6312196 (ChemMedChem, 2018):
Positions count from the first letter of the chain named. Where two headings read alike, the source gives them in different places.

Experiments:
ABL1 = biological target: T1, ABL1 (Homo sapiens, UniProt P00519); assay: Enzymatic inhibition of ABL1 wild type; format: biochemical; conditions: read-out: IC50 ABL1 wild type; enzyme, Figure 8A
T1 sequence (P00519 242-493 limits assumed): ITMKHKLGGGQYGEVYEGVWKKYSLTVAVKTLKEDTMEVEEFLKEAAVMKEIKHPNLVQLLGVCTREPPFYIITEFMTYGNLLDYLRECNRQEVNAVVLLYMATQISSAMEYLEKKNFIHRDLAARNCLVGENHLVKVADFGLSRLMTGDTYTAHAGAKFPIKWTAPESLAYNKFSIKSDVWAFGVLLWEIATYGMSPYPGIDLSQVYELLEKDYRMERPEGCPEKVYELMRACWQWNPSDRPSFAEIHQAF

ABL1(T315I) [1] = biological target: T2, ABL1(T315I) (Homo sapiens, UniProt P00519, T315I); assay: Enzymatic inhibition of ABL1; format: biochemical; conditions: read-out: IC50 ABL1(T315I); enzyme, Figure 8B
T2 sequence (P00519 242-493 T315I limits assumed): T1 sequence (P00519 242-493 limits assumed) with T74I

K562 = assay: Cellular proliferation assay; format: cell-based; conditions: read-out: IC50 (mean ±SD) K562
KCL22 = assay: Cellular proliferation assay; format: cell-based; conditions: read-out: IC50 (mean ±SD) KCL22
KCL22-IR = assay: Cellular proliferation assay; format: cell-based; conditions: 72 h
ABL1(T315I) [2] = biological target: ABL1(T315I) (Homo sapiens, UniProt P00519+P11274, T315I); assay: Cellular ABL1 kinase phosphorylation assay in KCL22-IR; conditions: read-out: IC50 (mean ±SD) cellular ABL1 activity, KCL22-IR; 2 hours incubation, KCL22-T315I cells
[3] = cited from earlier work
[4] = read-out: IC50 (mean ±SD) KCL22-IR, anti-proliferation, T315I mutation

Row | IC50 (ABL1) [nM] | IC50 (ABL1(T315I) [1]) [nM] | IC50 (K562; anti-proliferation, 72 h) [nM] | IC50 (ABL1(T315I) [2]) [nM] | Compound | IC50 (KCL22; anti-proliferation, 72 h) [nM] | IC50 (KCL22-IR; [4]) [nM] | IC50 (K562; Homo sapiens, K562, 72 h) [nM] | IC50 (KCL22; Homo sapiens, KCL-22, 72 h) [nM] | IC50 (KCL22-IR; read-out: IC50 (mean ±SD) KCL22-IR) [nM] | patients reporting serious and non-serious thrombotic events ([3]; cardiovascular, cerebrovascular, peripheral vascular events) [%] | deaths linked to the use of the drug ([3]; study n=499) | IC50 (KCL22-IR; read-out: IC50 KCL22-IR (bound cells)) [nM]
1 |  |  |  |  | Cc1ccc(C(=O)Nc2ccc(CN3CCN(C)CC3)c(C(F)(F)F)c2)cc1C#Cc1cnc2cccnn12 [Ponatinib, reference compound] |  |  | 0.6003 ± 0.0023 | 0.142 ± 0.003 | 0.66 ± 0.005 | 17.1 | Five | 
2 |  |  |  |  | Cc1ccc(NC(=O)c2ccc(CN3CCN(C)CC3)cc2)cc1Nc1nccc(-c2cccnc2)n1 [Imatinib, reference compound] |  |  |  |  |  |  |  | > 1000
3 | < 5 | 32.8 | 0.688 ± 0.003 | 36.4 ± 1.1 | CN1CCN(Cc2ccc(NC(=O)c3cncc(C#Cc4c(N)ncc5ccc(F)cc45)c3)cc2C(F)(F)F)CC1 [Compound 29] | 0.444 ± 0.008 | 4.1 ± 0.03 |  |  |  |  |  | 
4 |  |  | 1.85 ± 0.03 |  | Cc1ccc(C(=O)Nc2ccc(CN3CCN(C)CC3)c(C(F)(F)F)c2)cc1C#Cc1cnc(N)c2ncccc12 [Compound 9] | 0.18 ± 0.004 | 0.74 ± 0.004 |  |  |  |  |  | 
5 | < 5 | 4.7 | 1.75 ± 0.04 | 18.9 ± 1.1 | Cc1ncc(C(=O)Nc2ccc(CN3CCN(C)CC3)c(C(F)(F)F)c2)cc1C#Cc1cnc(N)c2ncccc12 [Compound 15] | 0.303 ± 0.002 | 2.67 ± 0.07 |  |  |  |  |  | 

Row | Compound | IC50 (ABL1) [nM] | IC50 (ABL1(T315I) [1]) [nM] | IC50 (K562; anti-proliferation, 72 h) [nM] | IC50 (ABL1(T315I) [2]) [nM] | IC50 (KCL22; anti-proliferation, 72 h) [nM] | IC50 (KCL22-IR; [4]) [nM] | IC50 (K562; Homo sapiens, K562, 72 h) [nM] | IC50 (KCL22; Homo sapiens, KCL-22, 72 h) [nM] | IC50 (KCL22-IR; read-out: IC50 (mean ±SD) KCL22-IR) [nM] | patients reporting serious and non-serious thrombotic events ([3]; cardiovascular, cerebrovascular, peripheral vascular events) [%] | deaths linked to the use of the drug ([3]; study n=499) | IC50 (KCL22-IR; read-out: IC50 KCL22-IR (bound cells)) [nM]
6 | CN1CCN(Cc2ccc(NC(=O)c3cncc(C#Cc4cnc(N)c5ncccc45)c3)cc2C(F)(F)F)CC1 [Compound 16] | < 5 | 40.7 | 0.765 ± 0.005 | 26 ± 1.1 | 1.02 ± 0.04 | 4.14 ± 0.11 |  |  |  |  |  | 
